From patent US8183281B2, “CXC-chemokine receptor ligands” (Novartis AG, priority 2007, dated 2012)

Target: T1, Human CXCR2 Receptor (Homo sapiens, UniProt P25025)
T1 construct: purchased Biosignal Packard Inc; host or cells: Chinese hamster ovary cells (CHO-K1), membranes
T1 sequence (P25025 1-360): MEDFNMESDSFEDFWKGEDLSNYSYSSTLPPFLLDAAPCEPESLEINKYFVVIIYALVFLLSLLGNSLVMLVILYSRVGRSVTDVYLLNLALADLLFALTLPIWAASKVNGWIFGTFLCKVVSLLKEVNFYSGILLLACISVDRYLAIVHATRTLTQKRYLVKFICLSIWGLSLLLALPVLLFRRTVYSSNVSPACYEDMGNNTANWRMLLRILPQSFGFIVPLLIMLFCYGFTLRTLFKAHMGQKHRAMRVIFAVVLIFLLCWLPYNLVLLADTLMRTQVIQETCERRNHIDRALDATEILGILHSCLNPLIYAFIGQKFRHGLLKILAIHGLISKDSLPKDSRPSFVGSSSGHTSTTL
Test: [35S]-GTPγS binding assay for human CXCR2 receptor using SPA technology
Type: biochemical
Conditions: CHO-K1 membranes expressing human CXCR2; 100 nM IL-8 stimulated; read-out: IC50 values in the [35S]-GPTγS binding assay
Text: [^35S]-GTPγS Binding Assay for Human CXCR2 Receptor Using SPA Technology
[^35S]-GTPγS (with specific activity 1082 Ci/mmol) and wheat germ agglutinin poly vinyl toluene scintillation proximity beads are purchased from Amersham Pharmacia Biotech. The Chinese hamster ovary cell (CHO-K1) membranes expressing human CXCR2 receptors are purchased from Biosignal Packard Inc. All other chemicals are of analytical grade. White non-binding surface 96 well Optiplate™ microplates are obtained from Packard. Recombinant human IL-8 is synthesised, cloned and expressed in Escherichia coli as described previously (Lindley I, et al., Proc. Natl. Acad. Sci., 1988, 85(23):9199). The assay is performed in duplicate in 96 well Optiplate™ microplate in a final volume of 250 μl per well. Compounds are diluted in DMSO (0.5% final concentration) and incubated in 20 mM HEPES buffer pH 7.4 containing 10 mM MgCl2, 100 mM NaCl, 1 mM EDTA plus 100 nM IL-8, 50 μM GDP and […] [^35S]GTPγS per well. SPA beads (1 mg/well final concentration) were pre-mixed with the membranes (10 μg/well final concentration) in assay buffer: 20 mM HEPES buffer pH 7.4 containing 10 mM MgCl2, 100 mM NaCl, 1 mM EDTA. […] The plate is centrifuged and read on Packard TopCoun™ scintillation counter, program [^35S dpm] for 1 min/well. Data are expressed as the % response to 100 nM IL-8 minus basal.

Row | IC50 [nM] | SMILES
1 | 58 | CC[C@@H](Nc1c(Nc2ccc(Cl)c(S(=O)(=O)N3CCCC3)c2O)c(=O)c1=O)[C@H]1CC[C@@H](C)O1 [Example 17, 3-[4-Chloro-2-hydroxy-3-(pyrrolidine-1-sulfonyl)-phenylamino]-4-[(R)-1-((2R,5R)-5-methyl-tetrahydrofuran-2-yl)-propylamino]-cyclobut-3-ene-1,2-dione]
2 | 22 | O=c1c(Nc2ccc(Cl)c(S(=O)(=O)N3CCOCC3)c2O)c(NC2CCSC2)c1=O (centres unmarked) [Example 7, 3-[4-Chloro-2-hydroxy-3-(morpholine-4-sulfonyl)-phenylamino]-4-(tetra-hydro-thiophen-3-ylamino)-cyclobut-3-ene-1,2-dione]
